The results in this text go back to patent US20110288052A1, “NOVEL COMPOUNDS, PHARMACEUTICAL COMPOSITIONS CONTAINING SAME, AND METHODS OF USE FOR SAME” (priority 2008, published 2011).

≈ marks a conversion by molar mass, not a printed value. Where two headings read alike, the source gives them in different places.

Test [1] concerns Staphylococcus aureus (ATCC # 29213). Description: Broth microdilution antimicrobial assay, S. aureus. It counts as cell-based. The procedure:
Antimicrobial Properties A broth microdilution assay is used to assess the antimicrobial activity of the compounds. Compounds are tested at twofold serial dilutions, and the concentration that inhibits visible growth (OD600 at 10% of control) is defined as the MIC. Microorganisms tested include Staphylococcus aureus (ATCC # 29213), Enterococcus faecalis (ATCC # 29212), Pseudomonas aerpginosa (ATCC # 27853), and Escherichia coli (ATCC # 25922). The assay is performed in two growth media, Mueller Hinton Broth and Trypticase Soy Broth.
A blood (Tsoy/5% sheep blood) agar plate is inoculated from frozen stocks maintained in T soy broth containing 10% glycerol and incubated overnight at 37° C. Colonies are suspended in sterile broth so that the turbidity matches the turbidity of a 0.5 McFarland standard. The inoculum is diluted 1:10 in sterile broth (Mueller Hinton or Trypticase soy) and 195 μl is dispensed per well of a 96-well plate. The compounds to be tested, dissolved in DMSO, are added to the wells in 5 μl volume at the following concentrations: 25, 12.5, 6.25, 3.125, 1.56 and 0.78 μg/ml in duplicate. Additional concentrations are tested if required. 5 μl of DMSO added to duplicate wells are the vehicle control. Serial dilutions of positive control compounds, vancomycin (E. faecalis and S. aureus) and tobramycin (E. coli and P. aerpginosa), are included in each run.
After 24 hours of incubation at 37° C., plates are read at OD600 on a Molecular Devices SpectraMax Plus Spectrophotometer. Average OD600 values are computed using SOFTmax Pro Software (Molecular Devices) and MIC values are determined by linear regression analysis using Prism version 3.02 (Graph Pad Software, San Diego). The MIC is defined as the concentration of compound required to produce an OD600 reading equivalent to 10% of the vehicle control reading.
In general terms: Dilution methods test growth across graded concentrations, often in twofold steps.

For test [2], the target named is T1, Human FAS purified from ZR-75-1 human breast cancer cells (Homo sapiens, UniProt P49327).
T1 construct: Human FAS was purified from cultured ZR-75-1 human breast cancer cells; endogenous in cells; host or cells: ZR-75-1 human breast cancer cells (ATCC); enzyme purified by hypotonic lysis, PEG precipitation and Mono Q anion exchange
T1 sequence (P49327 2-2511 limits assumed): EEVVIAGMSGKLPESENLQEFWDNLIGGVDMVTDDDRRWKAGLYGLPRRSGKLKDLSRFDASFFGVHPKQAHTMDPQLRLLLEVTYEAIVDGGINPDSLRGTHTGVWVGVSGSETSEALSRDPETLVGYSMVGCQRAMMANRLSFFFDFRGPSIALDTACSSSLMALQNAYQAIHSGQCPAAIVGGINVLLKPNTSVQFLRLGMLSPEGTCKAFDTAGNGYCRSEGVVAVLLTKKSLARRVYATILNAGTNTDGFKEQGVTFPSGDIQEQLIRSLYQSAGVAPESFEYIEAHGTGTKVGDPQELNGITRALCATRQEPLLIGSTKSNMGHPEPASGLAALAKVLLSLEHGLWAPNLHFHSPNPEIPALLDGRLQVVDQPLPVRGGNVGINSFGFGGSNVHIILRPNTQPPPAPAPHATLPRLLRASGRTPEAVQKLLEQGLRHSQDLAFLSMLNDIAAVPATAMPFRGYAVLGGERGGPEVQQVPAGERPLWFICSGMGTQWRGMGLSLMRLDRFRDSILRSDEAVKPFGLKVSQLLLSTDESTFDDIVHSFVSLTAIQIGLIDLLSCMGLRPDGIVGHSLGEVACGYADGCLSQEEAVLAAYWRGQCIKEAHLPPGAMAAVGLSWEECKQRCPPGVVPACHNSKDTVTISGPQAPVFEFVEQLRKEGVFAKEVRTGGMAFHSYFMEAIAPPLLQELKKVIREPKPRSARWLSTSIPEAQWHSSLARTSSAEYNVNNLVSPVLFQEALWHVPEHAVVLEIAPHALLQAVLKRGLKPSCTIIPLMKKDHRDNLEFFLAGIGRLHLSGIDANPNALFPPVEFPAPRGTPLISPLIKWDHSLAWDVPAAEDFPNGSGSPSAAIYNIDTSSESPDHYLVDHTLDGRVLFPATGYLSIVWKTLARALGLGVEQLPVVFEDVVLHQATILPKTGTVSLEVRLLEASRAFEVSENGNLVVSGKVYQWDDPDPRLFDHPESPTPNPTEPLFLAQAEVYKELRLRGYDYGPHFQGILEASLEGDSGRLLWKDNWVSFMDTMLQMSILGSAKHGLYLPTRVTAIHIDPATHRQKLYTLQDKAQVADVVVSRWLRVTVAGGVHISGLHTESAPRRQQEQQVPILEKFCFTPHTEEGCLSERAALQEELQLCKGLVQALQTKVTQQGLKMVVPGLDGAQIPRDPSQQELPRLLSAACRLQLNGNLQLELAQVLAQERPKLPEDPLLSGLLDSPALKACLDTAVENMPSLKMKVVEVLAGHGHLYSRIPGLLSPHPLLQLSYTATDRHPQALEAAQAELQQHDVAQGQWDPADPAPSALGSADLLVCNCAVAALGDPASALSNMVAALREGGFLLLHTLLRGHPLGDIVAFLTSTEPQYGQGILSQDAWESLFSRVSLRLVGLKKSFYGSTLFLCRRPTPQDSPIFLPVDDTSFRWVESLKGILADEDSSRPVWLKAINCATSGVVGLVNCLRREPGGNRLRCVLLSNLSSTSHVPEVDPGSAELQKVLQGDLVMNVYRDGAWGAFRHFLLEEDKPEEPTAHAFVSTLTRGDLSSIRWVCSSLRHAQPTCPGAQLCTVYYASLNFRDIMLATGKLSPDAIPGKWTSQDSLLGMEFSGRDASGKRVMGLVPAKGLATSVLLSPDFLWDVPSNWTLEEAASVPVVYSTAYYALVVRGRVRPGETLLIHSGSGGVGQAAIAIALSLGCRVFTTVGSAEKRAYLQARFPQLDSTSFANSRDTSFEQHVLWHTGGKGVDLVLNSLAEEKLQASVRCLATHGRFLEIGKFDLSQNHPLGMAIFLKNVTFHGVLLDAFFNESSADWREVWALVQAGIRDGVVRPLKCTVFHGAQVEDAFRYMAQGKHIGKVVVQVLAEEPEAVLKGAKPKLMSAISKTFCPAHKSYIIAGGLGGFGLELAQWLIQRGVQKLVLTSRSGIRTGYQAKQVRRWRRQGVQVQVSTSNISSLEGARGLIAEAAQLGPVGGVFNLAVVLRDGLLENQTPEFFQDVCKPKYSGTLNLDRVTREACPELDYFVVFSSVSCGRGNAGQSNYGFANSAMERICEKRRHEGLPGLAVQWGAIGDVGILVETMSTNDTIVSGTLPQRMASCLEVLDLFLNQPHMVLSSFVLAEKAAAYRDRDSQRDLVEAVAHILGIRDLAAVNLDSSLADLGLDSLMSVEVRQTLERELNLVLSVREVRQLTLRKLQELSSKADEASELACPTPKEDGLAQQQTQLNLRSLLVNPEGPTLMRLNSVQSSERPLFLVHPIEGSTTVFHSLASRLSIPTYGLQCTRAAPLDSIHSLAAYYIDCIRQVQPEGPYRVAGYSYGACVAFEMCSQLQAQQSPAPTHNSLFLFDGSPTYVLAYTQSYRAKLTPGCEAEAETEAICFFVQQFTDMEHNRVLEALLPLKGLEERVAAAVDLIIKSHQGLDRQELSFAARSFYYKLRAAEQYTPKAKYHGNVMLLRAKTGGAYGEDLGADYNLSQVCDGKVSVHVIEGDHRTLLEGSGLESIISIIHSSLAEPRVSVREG
The test can be described thus: FAS enzymatic activity (malonyl-CoA dependent NADPH oxidation). It counts as biochemical. The following applies: (SB). The procedure: Purification of FAS from ZR-75-1 Human Breast Cancer Cells. Human FAS was purified from cultured ZR-75-1 human breast cancer cells obtained from the American Type Culture Collection. The procedure, adapted from Linn et al., 1981, and Kuhajda et al., 1994, utilizes hypotonic lysis, successive polyethyleneglycol (PEG) precipitations, and anion exchange chromatography. ZR-75-1 cells are cultured at 37° C. with 5% CO2 in RPMI culture medium with 10% fetal bovine serum, penicillin and streptomycin.
Ten T150 flasks of confluent cells are lysed with 1.5 ml lysis buffer (20 mM Tris-HCl, pH 7.5, 1 mM EDTA, 0.1 mM phenylmethanesulfonyl fluoride (PMSF), 0.1% Igepal CA-630) and bounce homogenized on ice for 20 strokes. […] FAS protein concentration is determined using the Coomassie Plus Protein Assay Reagent (Pierce) according to manufacturer's specifications using BSA as a standard. […]
Measurement of FAS Enzymatic Activity and Determination of the IC50 of the Compounds FAS activity is measured by monitoring the malonyl-CoA dependent oxidation of NADPH spectrophotometrically at OD340 in 96-well plates (Dils et al and Arslanian et al, 1975). […]
The assay is performed on a Molecular Devices SpectraMax Plus Spectrophotometer. […] The plate is read again as above with the kinetic protocol to measure the malonyl-CoA dependent NADPH oxidation. […]

The mark [3] stands for this setting: ATCC29213, Mueller Hinton Broth, read-out: SA/MH (MIC).
[4] abbreviates: ATCC29213, Trypticase Soy Broth, read-out: SA/Tsoy (MIC).

For orientation: IC50 means the concentration needed to halve the response being measured. A lower IC50 goes with higher potency.

Take `CCCCCCCCC1(C)OC(=O)C=C1OCC(=O)Nc1ccc(Cl)cc1` (stereo not drawn): the MIC in test [1] (setting [3]) is 6 µg/mL (≈ 15.2 µM); in test [1] (setting [4]) it was 3 µg/mL (≈ 7.62 µM).
As to `CCCCCCCCC1(C)SC(=O)C=C1OCC(=O)Nc1ccc(Cl)cc1` (stereo not drawn), the IC50 in test [2] is 266 µM. Further, the MIC came out at 6 µg/mL (≈ 14.6 µM) in test [1] (setting [3]) and 3 µg/mL (≈ 7.32 µM) in test [1] (setting [4]).
Turning to `CCCCCCCCC1(C)SC(=O)C=C1OCC(=O)Nc1ccc(Cl)cc1Cl` (stereo not drawn), in test [2], the “FAS (IC50)” value was “Neg (SB)”.
